Structures can show the parent of a compound that is named as a salt.
Experiments:
[1] = tested on: Dengue 2 virus MY97-10340; assay: High-content imaging cell-based flavivirus immunodetection (HCl-CFI) assay, Dengue 2; conditions: Dengue virus, A549, 48 h, read-out: Dengue 2 virus MY97-10340 in A549 using HCl [Inhibitor/IC50] Qualified AC50, A549 cells, MOI 0.3, 48 h, viral E protein expression
Method in brief: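 A549 cells infected at MOI 0.3, treated with 3-fold, 10-point compound dilutions for 48 h. After paraformaldehyde fixation, viral E protein immunostained with 4G2 antibody and nuclei counterstained; imaged by high-content imaging. EC50 = concentration reducing E protein expression by 50%, from dose-response curves.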

[2] = tested on: Dengue 4 virus MY01-22713; assay: High-content imaging cell-based flavivirus immunodetection (HCl-CFI) assay, Dengue 4; conditions: Dengue virus, A549, 48 h, read-out: Dengue 4 virus MY01-22713 in A549 using HCl [Inhibitor/IC50] Qualified AC50, A549 cells, 48 h, viral E protein expression
[3] = tested on: Dengue 1 virus MY97-10245; assay: High-content imaging cell-based flavivirus immunodetection (HCl-CFI) assay, Dengue 1; conditions: Dengue virus, A549, 48 h, read-out: Dengue 1 virus MY97-10245 in A549 using HCl [Inhibitor/IC50] Qualified AC50
[4] = tested on: Dengue 3 virus MY05-34640-WT-C6/36; assay: High-content imaging cell-based flavivirus immunodetection (HCl-CFI) assay, Dengue 3; conditions: Dengue virus, A549, 48 h, read-out: Dengue 3 virus MY05-34640-WT-C6/36 in A549 using HCl [Inhibitor/IC50] Qualified AC50

Structure (SMILES) | EC50 [1] [µM] | EC50 [2] [µM] | EC50 [3] [µM] | EC50 [4] [µM]
CC1(C)CS(=O)(=O)c2ccc(CC(=O)Nc3sc4c(c3C#N)CN(Cc3cccc(F)c3)CC4)cc21 [Example 42, N-(3-cyano-5-(3-fluorobenzyl)-4,5,6,7-tetrahydrothieno[3,2-c]pyridin-2-yl)-2-(3,3-dimethyl-1,1-dioxido-2,3-dihydrobenzo[b]thiophen-5-yl)acetamide] | < 0.1 | < 0.1 | 0.1 to 1 | < 0.1
COc1cccc(CC(=O)Nc2sc3c(c2C#N)CN(Cc2cccc(F)c2)CC3)c1Cl [Example 41, 2-(2-chloro-3-methoxyphenyl)-N-(3-cyano-5-(3-fluorobenzyl)-4,5,6,7-tetrahydrothieno[3,2-c]pyridin-2-yl)acetamide] | 0.1 to 1 | 0.1 to 1 | > 1 | 0.1 to 1
CCC1(CC)Cc2sc(NC(=O)Cc3ccc(S(N)(=O)=O)cc3)c(C#N)c2CN1CC1CC(F)(F)C1 [Example 79, N-(3-cyano-5-((3,3-difluorocyclobutyl)methyl)-6,6-diethyl-4,5,6,7-tetrahydrothieno[3,2-c]pyridin-2-yl)-2-(4-sulfamoylphenyl)acetamide] | < 0.1 | < 0.1 | < 0.1 | < 0.1
CN(C(=O)Cc1ccc(S(N)(=O)=O)cc1)c1sc2c(c1C#N)CN(CC1CCCCC1)C(C)(C)C2 [Example 75, N-(3-cyano-5-(cyclohexylmethyl)-6,6-dimethyl-4,5,6,7-tetrahydrothieno[3,2-c]pyridin-2-yl)-N-methyl-2-(4-sulfamoylphenyl)acetamide] | > 1 | > 1 | > 1 | > 1
N#Cc1c(NC(=O)Cc2ccc(S(N)(=O)=O)cc2)sc2c1CN(CC1CC(F)(F)C1)CC2 [Example 2, N-(3-cyano-5-((3,3-difluorocyclobutyl)methyl)-4,5,6,7-tetrahydrothieno[3,2-c]pyridin-2-yl)-2-(4-sulfamoylphenyl)acetamide] | 0.1 to 1 | 0.1 to 1 | > 1 | 0.1 to 1
COC(=O)c1cccc(CN2CCc3c(sc(NC(=O)Cc4ccc(S(C)(=O)=O)cc4)c3C#N)C2)c1 [Example 120, methyl 3-((3-cyano-2-(2-(4-(methylsulfonyl)phenyl)acetamido)-4,7-dihydrothieno[2,3-c]pyridin-6(51-1)-yl)methyl)benzoate] | 0.1 to 1 | < 0.1 | > 1 | 0.1 to 1
CS(=O)(=O)n1ccc(CC(=O)Nc2sc3c(c2C#N)CN(Cc2cccc(F)c2)CC3)c1 [Example 36, N-(3-cyano-5-(3-fluorobenzyl)-4,5,6,7-tetrahydrothieno[3,2-c]pyridin-2-yl)-2-(1-(methylsulfonyl)-1H-pyrrol-3-yl)acetamide] | 0.1 to 1 | 0.1 to 1 | > 1 | 0.1 to 1
N#Cc1c(NC(=O)Cc2ccc(S(N)(=O)=O)cc2)sc2c1CCN(Cc1cc(F)cc(F)c1)C2 [Example 93, N-(3-cyano-6-(3,5-difluorobenzyl)-4,5,6,7-tetrahydrothieno[2,3-c]pyridin-2-yl)-2-(4-sulfamoylphenyl) acetamide] | < 0.1 | < 0.1 | 0.1 to 1 | < 0.1
CC1Cc2sc(NC(=O)Cc3ccc(S(N)(=O)=O)cc3)c(C#N)c2CN1CC1CCCC1 (centres unmarked) [Example 59, N-(3-cyano-5-(cyclopentylmethyl)-6-methyl-4,5,6,7-tetrahydrothieno[3,2-c]pyridin-2-yl)-2-(4-sulfamoylphenyl)acetamide hydrochloride] | 0.1 to 1 | 0.1 to 1 | > 1 | 0.1 to 1
CN(C)S(=O)(=O)c1ccc(CC(=O)Nc2sc3c(c2C#N)CN(CC2CCCCC2)CC3)cc1 [Example 14, N-(3-cyano-5-(cyclohexylmethyl)-4,5,6,7-tetrahydrothieno[3,2-c]pyridin-2-yl)-2-(4-(N,N-dimethylsulfamoyl)phenyl)acetamide] | 0.1 to 1 | 0.1 to 1 | 0.1 to 1 | 0.1 to 1
CS(=O)(=O)c1ccc(CC(=O)Nc2sc3c(c2C#N)CCN(Cc2cccc(F)c2)C3)cc1 [Example 119, N-(3-cyano-6-(3-fluorobenzyl)-4,5,6,7-tetrahydrothieno[2,3-c]pyridin-2-yl)-2-(4-(methylsulfonyl)phenyl)acetamide] | 0.1 to 1 | < 0.1 | > 1 | < 0.1

From patent US12012417B2, “N-substituted tetrahydrothienopyridine derivatives and uses thereof” (NOVARTIS AG, priority 2018, dated 2024)
